According to PubChem BioAssay (NCI):
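Protocol summary: plate cells (96-well), add compound at 5 concentrations, incubate 48 h, interpolate endpoints linearly. TGI denotes the concentration required for complete inhibition of growth.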

How the values were obtained:
Assay in all cases: inhibition of tumour cell growth, NCI panel, 48 h
[1] = tested on: SK-OV-3 ovarian
[2] = tested on: M14 melanoma
[3] = tested on: OVCAR-5 ovarian
[4] = tested on: TK-10 renal
[5] = tested on: UACC-257 melanoma
[6] = tested on: SF-295 CNS
[7] = tested on: SNB-19 CNS
[8] = tested on: MDA-MB-435
[9] = tested on: NCI-H460 lung
[10] = tested on: RXF 393 renal
[11] = tested on: A498 renal
[12] = tested on: DU-145 prostate
[13] = tested on: RPMI-8226 leukemia
[14] = tested on: SF-539 CNS
[15] = tested on: UO-31 renal
[16] = tested on: HCT-116 colon
[17] = tested on: COLO 205 colon
[18] = tested on: OVCAR-3 ovarian
[19] = tested on: U251 CNS
[20] = tested on: NCI-H23 lung
[21] = tested on: HOP-92 NSCLC
[22] = tested on: T-47D breast
[23] = tested on: EKVX NSCLC
[24] = tested on: ACHN renal
[25] = tested on: SW-620 colon
[26] = tested on: K-562 leukemia
[27] = tested on: CAKI-1 renal
[28] = tested on: SK-MEL-28 melanoma
[29] = tested on: MDA-MB-231 breast
[30] = tested on: A549 NSCLC
[31] = tested on: OVCAR-8 ovarian
[32] = tested on: SF-268 CNS
[33] = tested on: KM12 colon
[34] = tested on: SN12C renal
[35] = tested on: LOX IMVI melanoma
[36] = tested on: MCF7 breast
[37] = tested on: 786-0 renal
[38] = tested on: HOP-62 NSCLC
[39] = tested on: MDA-N
[40] = tested on: CCRF-CEM leukemia
[41] = tested on: SK-MEL-2 melanoma
[42] = tested on: UACC-62 melanoma
[43] = tested on: NCI/ADR-RES ovarian
[44] = tested on: SK-MEL-5 melanoma
[45] = tested on: HS 578T breast
[46] = tested on: SR leukemia
[47] = tested on: HCT-15 colon
[48] = tested on: BT-549 breast
[49] = tested on: NCI-H226 lung
[50] = tested on: HCC-2998 colon
[51] = tested on: MOLT-4 leukemia
[52] = tested on: OVCAR-4 ovarian
[53] = tested on: IGROV1 ovarian
[54] = tested on: MALME-3M melanoma
[55] = tested on: NCI-H522 lung
[56] = tested on: PC-3 prostate

Measured: TGI

NS(=O)(=O)c1nnc(NS(=O)(=O)c2cccc3cccnc23)s1
not listed: [53] | [54] | [55] | [56]
> 100 µM: all other assays above

Cc1cn(C2CC(O)C(Cn3nncc3Cn3nc(Br)c(=O)[nH]c3=O)O2)c(=O)[nH]c1=O (stereo unspecified)
not listed: [9] | [26]
> 100 µM: all other assays above
